How the values of series [1] were obtained: Prior to use, the appropriate amount of choline solution is transferred from the sterile vial and is added to the nutrient solution which typically is contained in a TPN bag.
The subject of series [2] is plasma levels of homocysteine. How it is done: Two female normal volunteers were infused with C-13-labeled choline and plasma levels of homocysteine were determined before and after infusion.

Read-outs that look alike come from different tables or passages of the source.

For the molecule `C[N+](C)(C)CCO.[Cl-]` [Choline chloride, choline chloride], the “effects on the TPN solution turbidity, pH, or amino acid concentrations” value in series [1] (choline chloride added to TPN nutrient solutions) was “no adverse affects”. For the same molecule, the “stable in various TPN nutrient solutions” value in series [1] (various TPN nutrient solutions) is reported as “at least 30 days”.
Turning to C-13-labeled choline, the “Plasma concentration of homocysteine after infusion” value was 5.14 µmol/L in series [2] (first normal volunteer, 6.62 umol/L before infusion) and 6.64 µmol/L in series [2] (second normal volunteer, 7.47 umol/L before infusion).

(Values after US20070043115A1, “Use of choline to prevent thrombosis associated with total parenteral nutrition” (priority 2005, published 2007).)
